# Test results as given in patent US9187475B2, “Pyrrolopyridinone derivatives as TTX-S blockers” (RaQualia Pharma Inc., priority 2012, dated 2015).
# Columns and labels:
# Type in all cases: cell-based
# [1] = molecular target: T1, human Nav1.5 channels (Homo sapiens, UniProt Q14524); test: FRET assay, HEK293 cells expressing human NaV1.5 channels; details: read-out: activities against Nav1.5
# T1 construct: expressed in transfected cells; host or cells: HEK293
# Protocol: (§1) The ability of the pyrrolopyridinone derivatives of the formula (I) to inhibit the NaV1.3, Nav1.7 and Nav1.5 channels is measured by Fluorescence Resonance Energy Transfer (FRET) assay and electrophysiology assay described below.
# (§2) This screen is used to determine the effects of compounds on human NaV1.3, human Nav1.7, and human Nav1.5 channels, utilising electrical field stimulation (EFS) system in 96-well plate format on FDSS (Hamamatsu Photonics) platform. The change of membrane potential is monitored with FRET dye pair, oxonol (DiSBAC2(3)) and coumarin (CC2-DMPE).
# (§3) Each HEK293 cells expressing human NaV1.3 channels and HEK293 cells expressing human NaV1.5 channels are grown in T225 flasks, in a 5% CO2 humidified incubator to about 80% confluence. Media composition consists of Dulbecco's Modified Eagle Medium (high glucose), 10% FCS, 100 units/mL penicillin, 100 microgram/mL streptomycin and 500 microgram/mL Geneticin™. […]
# (§4) The data are analyzed and reported as normalized ratios of intensities measured at […]. […]
# (§5) This analysis is performed using a computerized specific program designed for FDSS generated data. Fluorescence ratio values are plotted using XLfit™ to determine an IC50 value for each compound.
# [2] = molecular target: T2, human NaV1.3 channels (Homo sapiens, UniProt Q9NY46); test: FRET assay, HEK293 cells expressing human NaV1.3 channels; details: read-out: activities against Nav1.3
# T2 construct: expressed in transfected cells; host or cells: HEK293
# T2 sequence (Q9NY46 whole entry): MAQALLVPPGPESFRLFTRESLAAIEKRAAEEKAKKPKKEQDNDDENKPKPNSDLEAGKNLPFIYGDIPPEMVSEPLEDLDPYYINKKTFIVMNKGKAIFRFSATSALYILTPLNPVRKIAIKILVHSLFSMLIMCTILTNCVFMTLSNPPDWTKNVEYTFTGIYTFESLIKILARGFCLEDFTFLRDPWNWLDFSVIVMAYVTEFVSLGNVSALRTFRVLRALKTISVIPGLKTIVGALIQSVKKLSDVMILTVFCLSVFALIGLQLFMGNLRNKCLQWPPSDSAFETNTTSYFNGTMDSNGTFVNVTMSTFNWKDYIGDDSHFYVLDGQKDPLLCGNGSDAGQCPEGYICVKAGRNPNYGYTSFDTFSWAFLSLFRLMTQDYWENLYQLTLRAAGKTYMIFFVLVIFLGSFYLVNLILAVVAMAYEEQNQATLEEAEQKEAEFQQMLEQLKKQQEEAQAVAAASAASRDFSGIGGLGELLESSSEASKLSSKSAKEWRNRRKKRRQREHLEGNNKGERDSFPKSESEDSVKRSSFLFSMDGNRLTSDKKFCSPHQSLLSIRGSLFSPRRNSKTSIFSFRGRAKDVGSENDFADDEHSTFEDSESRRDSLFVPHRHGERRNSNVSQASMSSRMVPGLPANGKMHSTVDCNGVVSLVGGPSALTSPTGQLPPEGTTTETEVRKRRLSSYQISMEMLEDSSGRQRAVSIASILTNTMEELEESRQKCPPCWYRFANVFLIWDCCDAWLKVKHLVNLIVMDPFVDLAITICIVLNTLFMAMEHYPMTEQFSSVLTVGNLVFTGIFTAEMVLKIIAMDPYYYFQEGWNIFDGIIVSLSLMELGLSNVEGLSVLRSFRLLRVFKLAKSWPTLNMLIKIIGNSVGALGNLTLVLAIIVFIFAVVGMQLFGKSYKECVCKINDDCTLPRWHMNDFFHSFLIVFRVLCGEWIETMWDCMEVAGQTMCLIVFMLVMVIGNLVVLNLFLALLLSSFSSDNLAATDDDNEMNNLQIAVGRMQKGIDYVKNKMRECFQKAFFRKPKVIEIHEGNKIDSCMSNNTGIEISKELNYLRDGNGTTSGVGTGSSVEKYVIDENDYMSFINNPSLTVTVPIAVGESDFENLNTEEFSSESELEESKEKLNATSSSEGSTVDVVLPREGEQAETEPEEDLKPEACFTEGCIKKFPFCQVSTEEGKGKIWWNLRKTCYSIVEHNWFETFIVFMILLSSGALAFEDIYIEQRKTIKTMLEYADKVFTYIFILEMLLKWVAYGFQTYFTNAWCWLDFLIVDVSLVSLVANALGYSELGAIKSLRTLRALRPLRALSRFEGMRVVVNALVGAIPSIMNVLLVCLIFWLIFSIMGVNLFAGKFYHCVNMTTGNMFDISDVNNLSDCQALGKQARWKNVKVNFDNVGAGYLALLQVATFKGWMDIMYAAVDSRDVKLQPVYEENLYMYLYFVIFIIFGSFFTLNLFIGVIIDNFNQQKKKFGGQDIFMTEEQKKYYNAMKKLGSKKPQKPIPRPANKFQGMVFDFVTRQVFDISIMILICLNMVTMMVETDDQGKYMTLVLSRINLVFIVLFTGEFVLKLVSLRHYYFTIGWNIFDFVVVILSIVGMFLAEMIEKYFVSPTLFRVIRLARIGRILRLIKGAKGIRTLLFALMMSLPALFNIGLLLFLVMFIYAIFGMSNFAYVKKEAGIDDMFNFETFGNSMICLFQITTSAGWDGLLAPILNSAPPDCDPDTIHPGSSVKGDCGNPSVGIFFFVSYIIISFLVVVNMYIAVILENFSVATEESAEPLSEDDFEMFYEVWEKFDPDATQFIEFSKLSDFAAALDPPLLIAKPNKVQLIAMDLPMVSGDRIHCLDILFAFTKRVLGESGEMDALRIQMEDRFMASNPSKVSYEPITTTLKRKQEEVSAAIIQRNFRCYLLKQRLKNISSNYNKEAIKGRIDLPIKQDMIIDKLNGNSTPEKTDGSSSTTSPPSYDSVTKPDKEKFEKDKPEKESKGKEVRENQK
# Protocol: as §1, §2, §3, §4, §5
# [3] = molecular target: T3, human Nav1.7 channels (Homo sapiens, UniProt Q15858); test: FRET assay, CHO cells expressing human NaV1.7 channels; details: read-out: activities against Nav1.7
# T3 construct: expressed in transfected cells; host or cells: CHO
# Protocol: as §1, §2
# CHO cells expressing human NaV1.7 channels are grown in T225 flasks, in a 5% CO2 humidified incubator to about 80% confluence. Media composition consists of HAM/F12 with GlutaMAX™ I, 10% FCS, 100 units/mL penicillin and 100 microgram/mL hygromycin. […]
# as §4, §5
# [4] = molecular target: T4, human Nav1.3 (hSCN3A) (Homo sapiens, UniProt Q9NY46); test: Electrophysiology assay (whole cell patch clamp), human Nav1.3 (hSCN3A) expressing HEK293 cells; details: dissociation constant for the inactivated state (Kinact); read-out: activities (Ki) against NaV1.3
# T4 construct: expressed in transfected cells; host or cells: HEK293
# T4 sequence (Q9NY46 whole entry): as above
# Protocol: (§6) Whole cell patch clamp recording is used to assess the efficacy or selectivity of Na channel blocker on human Nav1.3 (hSCN3A) expressing HEK293 cells or human Nav1.7 (hSCN9A) expressing CHO cells. Human Nav1.3 expressing HEK293 cells are grown in growth media which contain: Dulbecco's […] (DMEM), 10% heat-inactivated fetal bovine serum (FBS) (Hyclone Laboratories Inc), 100 microgram/mL penicillin/100 U/mL streptomycin, 150 microgram/mL Zeocin™, and 3 microgram/mL Geneticin. Human […], expressing CHO cells are grown in growth media which contain: HAM/F-12, 9% heat-inactivated FBS (Hyclone Laboratories Inc), and 100 microgram/mL penicillin/100 U/mL streptomycin, and 100 microgram/mL hygromycin.
# (§7) Na channel expressing cells are dissociated by 0.05 trypsin-EDTA, and then seeded on cover glass for 24 to 48 hr. […]
# (§8) The normalized steady-state inactivation curve is constructed using 2 sec (for vehicle) or 60 sec (for drugs) conditioning pulse to different potentials followed immediately by the test pulse to −10 mV. […] The affinity of drugs to resting state of Na channels (Kresting or Kt) is assessed by 30 msec test pulse from a negative holding potential of −120 or −130 mV, where virtually all channels are in the resting state. Kr value is calculated by a conventional 1:1 binding model: Kresting(Kr)={[drug]Imax,drug/(Imax,control−Imax,drug)} [Math.2] […]
# [5] = molecular target: T5, human Nav1.7 (hSCN9A) (Homo sapiens, UniProt Q15858); test: Electrophysiology assay (whole cell patch clamp), human Nav1.7 (hSCN9A) expressing CHO cells; details: dissociation constant for the inactivated state (Kinact); read-out: activities (Ki) against NaV1.7
# T5 construct: expressed in transfected cells; host or cells: CHO
# Protocol: as §6, §7, §8
# T1 sequence (Q14524 whole entry): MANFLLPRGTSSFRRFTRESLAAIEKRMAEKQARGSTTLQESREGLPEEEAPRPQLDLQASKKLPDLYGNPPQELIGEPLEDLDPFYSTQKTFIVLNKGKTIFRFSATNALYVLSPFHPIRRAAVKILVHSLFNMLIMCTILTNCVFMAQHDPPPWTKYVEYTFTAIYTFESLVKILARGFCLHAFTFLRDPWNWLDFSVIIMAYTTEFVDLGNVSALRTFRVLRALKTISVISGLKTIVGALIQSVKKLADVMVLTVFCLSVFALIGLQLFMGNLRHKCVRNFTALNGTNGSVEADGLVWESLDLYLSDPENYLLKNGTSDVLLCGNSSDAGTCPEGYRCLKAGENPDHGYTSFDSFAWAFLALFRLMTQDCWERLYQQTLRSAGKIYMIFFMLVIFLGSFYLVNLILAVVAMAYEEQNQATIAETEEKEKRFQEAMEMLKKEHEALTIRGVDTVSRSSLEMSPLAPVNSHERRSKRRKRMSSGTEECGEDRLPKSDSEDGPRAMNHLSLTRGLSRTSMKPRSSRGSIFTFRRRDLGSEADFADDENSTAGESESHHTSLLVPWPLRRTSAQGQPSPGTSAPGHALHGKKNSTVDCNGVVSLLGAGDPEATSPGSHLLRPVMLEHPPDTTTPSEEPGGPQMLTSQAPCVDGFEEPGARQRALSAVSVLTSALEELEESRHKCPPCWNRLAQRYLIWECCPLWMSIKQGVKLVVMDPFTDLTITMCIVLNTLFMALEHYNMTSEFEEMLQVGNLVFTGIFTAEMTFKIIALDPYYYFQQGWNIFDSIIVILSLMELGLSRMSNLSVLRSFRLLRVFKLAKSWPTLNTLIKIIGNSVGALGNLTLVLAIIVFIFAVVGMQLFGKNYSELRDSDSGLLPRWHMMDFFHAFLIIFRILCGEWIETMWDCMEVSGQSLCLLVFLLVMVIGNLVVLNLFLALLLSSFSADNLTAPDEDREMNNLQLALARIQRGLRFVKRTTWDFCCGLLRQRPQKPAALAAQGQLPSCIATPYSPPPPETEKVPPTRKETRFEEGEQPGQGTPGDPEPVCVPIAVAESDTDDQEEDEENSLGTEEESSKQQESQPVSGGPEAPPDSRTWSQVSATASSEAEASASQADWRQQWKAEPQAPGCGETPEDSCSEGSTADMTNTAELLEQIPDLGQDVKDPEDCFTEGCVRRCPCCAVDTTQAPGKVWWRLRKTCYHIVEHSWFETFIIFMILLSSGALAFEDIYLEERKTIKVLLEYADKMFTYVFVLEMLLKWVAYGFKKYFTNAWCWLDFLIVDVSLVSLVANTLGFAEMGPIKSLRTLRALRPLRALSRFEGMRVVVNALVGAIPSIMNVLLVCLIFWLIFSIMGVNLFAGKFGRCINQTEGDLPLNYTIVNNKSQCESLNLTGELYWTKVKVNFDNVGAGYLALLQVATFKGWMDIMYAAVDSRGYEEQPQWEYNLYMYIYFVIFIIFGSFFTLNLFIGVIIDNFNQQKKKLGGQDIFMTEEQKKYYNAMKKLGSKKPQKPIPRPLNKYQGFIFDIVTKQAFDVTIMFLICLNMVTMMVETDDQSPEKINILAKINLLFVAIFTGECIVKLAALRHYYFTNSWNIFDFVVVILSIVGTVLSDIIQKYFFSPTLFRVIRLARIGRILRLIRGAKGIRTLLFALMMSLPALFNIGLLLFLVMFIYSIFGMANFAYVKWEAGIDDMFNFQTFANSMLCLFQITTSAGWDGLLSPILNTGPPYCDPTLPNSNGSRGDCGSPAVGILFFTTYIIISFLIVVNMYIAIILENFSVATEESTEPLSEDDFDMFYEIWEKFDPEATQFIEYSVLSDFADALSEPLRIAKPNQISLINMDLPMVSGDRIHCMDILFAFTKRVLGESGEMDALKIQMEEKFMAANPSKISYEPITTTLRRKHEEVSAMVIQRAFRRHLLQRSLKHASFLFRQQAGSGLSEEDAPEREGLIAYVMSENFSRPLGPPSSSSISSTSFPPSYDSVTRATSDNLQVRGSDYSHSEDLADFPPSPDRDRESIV
SMILES,IC50 [1] [nM],IC50 [2] [nM],IC50 [3] [nM],Ki [4] [nM],Ki [5] [nM]
"CC(=O)Nc1nccc2c1CN(C(C)c1cnc(OCC(F)(F)F)c(C)c1)C2=O (single isomer, unassigned) [Example 2, N-(2-(1-(5-methyl-6-(2,2,2-trifluoroethoxy)pyridin-3-yl)ethyl)-1-oxo-2,3-dihydro-1H-pyrrolo[3,4-c]pyridin-4-yl)acetamide]",> 30000,440,1100,,
"Cc1cc(C(C)N2Cc3c(ccnc3NC(=O)C(C)C)C2=O)cnc1OCC(F)(F)F (single isomer, unassigned) [Example 3, N-(2-(1-(5-methyl-6-(2,2,2-trifluoroethoxy)pyridin-3-yl)ethyl)-1-oxo-2,3-dihydro-1H-pyrrolo[3,4-c]pyridin-4-yl)isobutyramide]",,,,140,91
